Source: patent US9463254B2, “Molecular design toward dual-modality probes for radioisotope-based imaging (PET or SPECT) and MRI” (Board of Regents, The University of Texas System, priority 2013, dated 2016)
One block for each compound: values may come before it.

Legend:
[1] = et al., cited from earlier work; for thermodynamic stability logK: Caravan, 1999
[2] = MRI imaging and relaxivity measurements at 7.0 T; format: physicochemical
Protocol: The T1-weighted MR images of samples in 0.5 mL microfuge tubes were collected using Agilent®/Varian™ 7.0 T ([…], 5 cm diameter volume coil) VNMRj's spin-echo sequence (SEMS) sequence. For imaging, the following parameters were used: TR=200 ms; effective echo time (TE)=11.5 ms; FOV 45×45 mm^2, data matrix=256×256, averaging=2, slice=1 mm, steady-state scans=5, single slice. The T1-maps of the samples at […] was determined from a series of multi-TR (0.005 s to 10 s) saturation-recovery spin-echo sequence (SEMS with minimum TE (11.5 ms); FOV 45×45 mm^2; matrix=128×128; averaging=5, steady state scans=5), fitted and calculated using the ImageJ software. All the fits for T1 values used to calculate the longitudinal relaxivity, r1, had fitting coefficients, R^2≧0.99. Three trials were performed. […] Such changes are well known that T1 relaxivity typically decreases with increasing field strength (Caravan, et al., 1999).

[3] = 20 MHz, 39° C.; cited from earlier work
[4] = Relaxivity measurements (T1 relaxivity, Maran Ultra relaxometer); format: physicochemical; conditions: 20 MHz, 25° C., Millipore water
Protocol: The T1 values were recorded at […], 25° C. by using a Maran Ultra relaxometer (Oxford Instruments, UK). Longitudinal relaxation times were measured by using the inversion-recovery pulse sequence (180°-t-90°). The T1 relaxivities were determined by the linear regression analysis of the water proton relaxation rates in solutions ranging in concentration from 0.005 to 12 mM, in Millipore water in triplicate. At 20 MHz, 25° C., the relaxivity of Gd^3+-L was calculated to be 103.5±15 mM^−1 s^−1. Thus, each Gd in the complex accounts for relaxivity of 17.25 mM^−1 s^−1, while under the same conditions, the relaxivity of Gd(DOTA) complex is 3.5 mM^−1 s^−1. The relaxivity value of Gd^3+-L is approximately 400% higher than that of Gd(DOTA). This may be attributed to its higher molecular weight (larger size) and consequently longer rotational correlation time (tR). At ambient conditions (37° C.), the relaxivity value of Gd^3+-L remains unchanged. The measurement of the relaxivity value of Gd^3+-L in rat serum at 25° C. gives an enhanced relaxivity value of 145.5±9.2 mM^−1 s^−1.

Compound: O=C([O-])CN(CCN(CC(=O)[O-])CC(=O)O)CCN(CC(=O)[O-])CC(=O)O.[Gd+3] [Gd-DTPA]
Log K compared with that of Gd-NOTA complex ([1]; Reichert, 1996): about eight orders of magnitude higher

r1 (longitudinal relaxivity) of the comparator [2]: 4.1 mM^−1 S^1
Compound: CNC[C@H](O)[C@@H](O)[C@H](O)[C@H](O)CO.CNC[C@H](O)[C@@H](O)[C@H](O)[C@H](O)CO.O=C([O-])CN(CCN(CC(=O)[O-])CC(=O)O)CCN(CC(=O)[O-])CC(=O)O.[Gd+3] [magnevist]

Compound: O=C([O-])CN1CCN(CC(=O)[O-])CCN(CC(=O)[O-])CC1.[Ga+3] [Ga-NOTA]
thermodynamic stability logK [1]: 31.0

Compound: Gadomer-17
ionic relaxivity [3]: 17.3 mM⁻¹ s⁻¹

Compound: O=C([O-])CN1CCN(CC(=O)[O-])CCN(CC(=O)[O-])CC1.[Gd+3] [Gd-NOTA]
thermodynamic stability logK [1]: 14.3

Compound: gadolinium-1,4,7,10-tetrakis(carboxymethyl) cyclododecane [Gd(DOTA)]
relaxivity [4]: 3.5 mM⁻¹ s⁻¹
thermodynamic stability logK [1]: 24.7
